{"source": "PubChem BioAssay (NCI)", "test_in_all_cases": "DTP human tumour cell line panel, 48 h", "key": {"U251 CNS": {"system": "U251 CNS"}, "UACC-62 melanoma": {"system": "UACC-62 melanoma"}, "CCRF-CEM leukemia": {"system": "CCRF-CEM leukemia"}, "NCI/ADR-RES ovarian": {"system": "NCI/ADR-RES ovarian"}, "T-47D breast": {"system": "T-47D breast"}, "M14 melanoma": {"system": "M14 melanoma"}, "HOP-62 NSCLC": {"system": "HOP-62 NSCLC"}, "HCT-15 colon": {"system": "HCT-15 colon"}, "786-0 renal": {"system": "786-0 renal"}, "PC-3 prostate": {"system": "PC-3 prostate"}, "NCI-H226 lung": {"system": "NCI-H226 lung"}, "SK-MEL-5 melanoma": {"system": "SK-MEL-5 melanoma"}, "A549 NSCLC": {"system": "A549 NSCLC"}, "HCC-2998 colon": {"system": "HCC-2998 colon"}, "HT29 colon": {"system": "HT29 colon"}, "ACHN renal": {"system": "ACHN renal"}, "MOLT-4 leukemia": {"system": "MOLT-4 leukemia"}, "NCI-H23 lung": {"system": "NCI-H23 lung"}, "SF-268 CNS": {"system": "SF-268 CNS"}, "MDA-MB-435": {"system": "MDA-MB-435"}, "KM12 colon": {"system": "KM12 colon"}, "OVCAR-3 ovarian": {"system": "OVCAR-3 ovarian"}, "MDA-MB-231 breast": {"system": "MDA-MB-231 breast"}, "DU-145 prostate": {"system": "DU-145 prostate"}, "RXF 393 renal": {"system": "RXF 393 renal"}, "HL-60(TB) leukemia": {"system": "HL-60(TB) leukemia"}, "RPMI-8226 leukemia": {"system": "RPMI-8226 leukemia"}, "K-562 leukemia": {"system": "K-562 leukemia"}, "OVCAR-8 ovarian": {"system": "OVCAR-8 ovarian"}, "A498 renal": {"system": "A498 renal"}, "UACC-257 melanoma": {"system": "UACC-257 melanoma"}, "NCI-H460 lung": {"system": "NCI-H460 lung"}, "MALME-3M melanoma": {"system": "MALME-3M melanoma"}, "COLO 205 colon": {"system": "COLO 205 colon"}, "SNB-75 CNS": {"system": "SNB-75 CNS"}, "TK-10 renal": {"system": "TK-10 renal"}, "IGROV1 ovarian": {"system": "IGROV1 ovarian"}, "SF-295 CNS": {"system": "SF-295 CNS"}, "HS 578T breast": {"system": "HS 578T breast"}, "SK-MEL-2 melanoma": {"system": "SK-MEL-2 melanoma"}, "OVCAR-5 ovarian": {"system": "OVCAR-5 ovarian"}, "SW-620 colon": {"system": "SW-620 colon"}, "SK-OV-3 ovarian": {"system": "SK-OV-3 ovarian"}, "OVCAR-4 ovarian": {"system": "OVCAR-4 ovarian"}, "SN12C renal": {"system": "SN12C renal"}, "NCI-H522 lung": {"system": "NCI-H522 lung"}, "LOX IMVI melanoma": {"system": "LOX IMVI melanoma"}, "HCT-116 colon": {"system": "HCT-116 colon"}, "EKVX NSCLC": {"system": "EKVX NSCLC"}, "MCF7 breast": {"system": "MCF7 breast"}, "MDA-N": {"system": "MDA-N"}, "SK-MEL-28 melanoma": {"system": "SK-MEL-28 melanoma"}}, "note": "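Five concentrations, 48 hours, 96-well plates. The concentration for full growth arrest is given as TGI.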", "data": [{"smiles": "Cc1ccc(Cl)c2[nH]c(-c3ccccc3)cc(=O)c12", "values": [{"measurement": "TGI", "setting": "U251 CNS", "value": "> 100", "unit": "µM"}, {"measurement": "TGI", "setting": "UACC-62 melanoma", "value": "> 100", "unit": "µM"}, {"measurement": "TGI", "setting": "CCRF-CEM leukemia", "value": "> 100", "unit": "µM"}, {"measurement": "TGI", "setting": "NCI/ADR-RES ovarian", "value": "> 100", "unit": "µM"}, {"measurement": "TGI", "setting": "T-47D breast", "value": "> 100", "unit": "µM"}, {"measurement": "TGI", "setting": "M14 melanoma", "value": "> 100", "unit": "µM"}, {"measurement": "TGI", "setting": "HOP-62 NSCLC", "value": "> 100", "unit": "µM"}, {"measurement": "TGI", "setting": "HCT-15 colon", "value": "> 100", "unit": "µM"}, {"measurement": "TGI", "setting": "786-0 renal", "value": "> 100", "unit": "µM"}, {"measurement": "TGI", "setting": "PC-3 prostate", "value": "> 100", "unit": "µM"}, {"measurement": "TGI", "setting": "NCI-H226 lung", "value": "> 100", "unit": "µM"}, {"measurement": "TGI", "setting": "SK-MEL-5 melanoma", "value": "> 100", "unit": "µM"}, {"measurement": "TGI", "setting": "A549 NSCLC", "value": 72, "unit": "µM"}, {"measurement": "TGI", "setting": "HCC-2998 colon", "value": "> 100", "unit": "µM"}, {"measurement": "TGI", "setting": "HT29 colon", "value": "> 100", "unit": "µM"}, {"measurement": "TGI", "setting": "ACHN renal", "value": 98.4, "unit": "µM"}, {"measurement": "TGI", "setting": "MOLT-4 leukemia", "value": "> 100", "unit": "µM"}, {"measurement": "TGI", "setting": "NCI-H23 lung", "value": "> 100", "unit": "µM"}, {"measurement": "TGI", "setting": "SF-268 CNS", "value": 79.7, "unit": "µM"}, {"measurement": "TGI", "setting": "MDA-MB-435", "value": "> 100", "unit": "µM"}, {"measurement": "TGI", "setting": "KM12 colon", "value": "> 100", "unit": "µM"}, {"measurement": "TGI", "setting": "OVCAR-3 ovarian", "value": "> 100", "unit": "µM"}, {"measurement": "TGI", "setting": "MDA-MB-231 breast", "value": "> 100", "unit": "µM"}, {"measurement": "TGI", "setting": "DU-145 prostate", "value": "> 100", "unit": "µM"}, {"measurement": "TGI", "setting": "RXF 393 renal", "value": "> 100", "unit": "µM"}, {"measurement": "TGI", "setting": "HL-60(TB) leukemia", "value": "> 100", "unit": "µM"}, {"measurement": "TGI", "setting": "RPMI-8226 leukemia", "value": "> 100", "unit": "µM"}, {"measurement": "TGI", "setting": "K-562 leukemia", "value": "> 100", "unit": "µM"}, {"measurement": "TGI", "setting": "OVCAR-8 ovarian", "value": "> 100", "unit": "µM"}, {"measurement": "TGI", "setting": "A498 renal", "value": "> 100", "unit": "µM"}, {"measurement": "TGI", "setting": "UACC-257 melanoma", "value": "> 100", "unit": "µM"}, {"measurement": "TGI", "setting": "NCI-H460 lung", "value": "> 100", "unit": "µM"}, {"measurement": "TGI", "setting": "MALME-3M melanoma", "value": "> 100", "unit": "µM"}, {"measurement": "TGI", "setting": "COLO 205 colon", "value": "> 100", "unit": "µM"}, {"measurement": "TGI", "setting": "SNB-75 CNS", "value": "> 100", "unit": "µM"}, {"measurement": "TGI", "setting": "TK-10 renal", "value": "> 100", "unit": "µM"}, {"measurement": "TGI", "setting": "IGROV1 ovarian", "value": "> 100", "unit": "µM"}, {"measurement": "TGI", "setting": "SF-295 CNS", "value": "> 100", "unit": "µM"}, {"measurement": "TGI", "setting": "HS 578T breast", "value": "> 100", "unit": "µM"}, {"measurement": "TGI", "setting": "SK-MEL-2 melanoma", "value": "> 100", "unit": "µM"}, {"measurement": "TGI", "setting": "OVCAR-5 ovarian", "value": "> 100", "unit": "µM"}, {"measurement": "TGI", "setting": "SW-620 colon", "value": "> 100", "unit": "µM"}, {"measurement": "TGI", "setting": "SK-OV-3 ovarian", "value": "> 100", "unit": "µM"}, {"measurement": "TGI", "setting": "OVCAR-4 ovarian", "value": "> 100", "unit": "µM"}, {"measurement": "TGI", "setting": "SN12C renal", "value": "> 100", "unit": "µM"}, {"measurement": "TGI", "setting": "NCI-H522 lung", "value": "> 100", "unit": "µM"}, {"measurement": "TGI", "setting": "LOX IMVI melanoma", "value": "> 100", "unit": "µM"}, {"measurement": "TGI", "setting": "HCT-116 colon", "value": "> 100", "unit": "µM"}, {"measurement": "TGI", "setting": "EKVX NSCLC", "value": 45, "unit": "µM"}, {"measurement": "TGI", "setting": "MCF7 breast", "value": 34.6, "unit": "µM"}, {"measurement": "TGI", "setting": "MDA-N", "value": "> 100", "unit": "µM"}, {"measurement": "TGI", "setting": "SK-MEL-28 melanoma", "value": "> 100", "unit": "µM"}]}]}
